Source: patent US7553867B2, “Furan or thiophene derivative and medicinal use thereof” (Takeda Pharmaceutical Company Limited, priority 2002, dated 2009)

Legend:
[1] = target: T1, PPARδ-RXRα heterodimer (Homo sapiens, UniProt Q03181); experiment: PPARδ-RXRα heterodimer ligand activity (luciferase reporter, transfected COS-1 cells); format: cell-based; conditions: luciferase activity at 10 nM test compound relative to non-administration group as 1
T1 construct: expressed in transfected cells; host or cells: COS-1 (transient; pMCMVneo-hPPARδ + pMCMVneo-hRXRα)
T1 sequence (Q03181 1-441): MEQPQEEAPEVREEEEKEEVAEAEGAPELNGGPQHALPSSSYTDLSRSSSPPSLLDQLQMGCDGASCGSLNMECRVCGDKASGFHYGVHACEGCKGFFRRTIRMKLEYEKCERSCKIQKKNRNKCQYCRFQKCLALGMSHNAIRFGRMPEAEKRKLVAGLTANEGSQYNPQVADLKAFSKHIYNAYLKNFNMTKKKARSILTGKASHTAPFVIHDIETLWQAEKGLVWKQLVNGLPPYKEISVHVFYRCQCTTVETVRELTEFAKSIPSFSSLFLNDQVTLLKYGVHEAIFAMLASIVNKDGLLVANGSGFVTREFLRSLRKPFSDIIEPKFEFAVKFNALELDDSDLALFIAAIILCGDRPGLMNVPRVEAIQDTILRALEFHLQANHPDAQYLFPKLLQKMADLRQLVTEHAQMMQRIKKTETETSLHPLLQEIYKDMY
T1 sequence (P19793 1-462 partner): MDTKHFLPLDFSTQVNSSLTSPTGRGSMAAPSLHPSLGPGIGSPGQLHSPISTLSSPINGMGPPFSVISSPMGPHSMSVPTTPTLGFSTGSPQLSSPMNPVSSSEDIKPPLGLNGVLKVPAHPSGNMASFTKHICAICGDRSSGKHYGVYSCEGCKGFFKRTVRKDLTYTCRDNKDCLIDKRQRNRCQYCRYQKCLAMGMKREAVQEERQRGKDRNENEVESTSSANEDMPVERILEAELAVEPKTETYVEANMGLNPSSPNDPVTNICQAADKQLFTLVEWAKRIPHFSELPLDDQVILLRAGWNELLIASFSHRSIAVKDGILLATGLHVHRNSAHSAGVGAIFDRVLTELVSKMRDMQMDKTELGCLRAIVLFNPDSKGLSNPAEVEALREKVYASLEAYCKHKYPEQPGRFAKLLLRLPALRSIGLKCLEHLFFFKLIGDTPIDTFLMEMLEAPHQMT
Protocol: At 18 to 24 hours after transfection carried out in Reference Example 9a, COS-1 cells were collected, suspended in DMEM medium [manufactured by Life Technologies, Inc., USA] containing 0.1% fatty acid-free bovine serum albumin (BSA) (produced by Waco Pure Chemicals Industries, Ltd.), and inoculated to each well of a 96-well white plate (produced by Corning, USA) at 1×10^4 cells/well in 80 μl. Subsequently, 20 μl of a test compound was added, and the plate was incubated under the conditions of 37° C. and 5% CO2 for 36 to 48 hours. After removal of the medium from the 96-well white plate, 40 μl of PicaGene. LT 7.5 (produced by Waco Pure Chemicals Industries, Ltd.) diluted twofold with HBSS (HANKS' BALANCED SALT SOLUTION) (produced by BIO WHITTAKER) was added, and after stirring, the luciferase activity was determined using 1420 ARVO Multilabel Counter [produced by Wallac].
The fold induction was calculated from the luciferase activity for addition of each 10 nM of the test compound relative to the luciferase activity of the test compound non-administration group as 1. Results are shown in [Table 2].
A COS-1 cell was inoculated in a cell culture flask (produced by Corning, USA) of 150 cm^2 at 5×10^6 cells/50 ml, and the plate was incubated under the conditions of 37° C. and 5% CO2 for 24 hours. Transfection was carried out with lipofectamine (produced by Invitrogen, USA). A transfection mixture solution was prepared by mixing 125 μl of lipofectamine, 100 μl of PLUS Reagent, 2.5 μg of pMCMVneo-hPPARδ (obtained in Reference Example 3a), 2.5 μg of pMCMVneo-hRXRα (obtained in Reference Example 4a), 5 μg of reporter plasmid pGL3-4ERPP-TK neo (obtained in Reference Example 5a) and 5 μg of pRL-tk [produced by Promega, USA] with 5 ml of opti-MEM (produced by Invitrogen, USA). To the COS-1 cell washed with opti-MEM, the above-mentioned transfection mixture solution and 20 ml of opti-MEM were added, and then incubated under the conditions of 37° C. and 5% CO2 for 3 hours. Then, 25 ml of DMEM medium [manufactured by Life Technologies, Inc., USA] containing 0.1% fatty acid-free bovine serum albumin (BSA) (produced by Waco Pure Chemicals Industries, Ltd.) was added thereto, and then incubated under the conditions of 37° C. and 5% CO2 for 18 to 24 hours.

[2] = target: T2, human GPR40 (Homo sapiens, UniProt O14842); experiment: Receptor function regulating action (agonist action) for GPR40, intracellular calcium by FLIPR in CHO cells; format: cell-based; conditions: CHO cells expressing human GPR40; change of fluorescence intensity at 30 seconds after reaction initiation
T2 construct: expressed in transfected cells; host or cells: CHO cell strain (No. 104)
T2 sequence (O14842 whole entry): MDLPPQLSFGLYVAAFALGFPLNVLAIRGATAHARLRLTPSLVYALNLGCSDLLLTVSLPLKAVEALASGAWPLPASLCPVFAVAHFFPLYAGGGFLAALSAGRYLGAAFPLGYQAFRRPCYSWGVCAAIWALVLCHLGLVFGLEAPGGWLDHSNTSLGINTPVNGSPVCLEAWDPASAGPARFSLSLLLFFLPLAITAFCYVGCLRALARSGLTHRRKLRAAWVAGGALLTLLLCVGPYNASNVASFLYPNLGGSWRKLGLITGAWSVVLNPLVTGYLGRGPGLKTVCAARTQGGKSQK
Protocol: CHO cell strain (No. 104) which have had expressed human GPR40 was diluted to contain 3×10^4 cells/100 μL, and added to a Black walled 96-well plate (Costar) at 100 μL/well, and incubated overnight in CO2 incubator. Change of intracellular calcium concentration was measured with FLIPR (Molecular Device). The method is as follows. 50 μg of Fluo-3AM (DOJIN) was dissolved in 21 μL of DMSO (DOJIN), and the same amount of 20% pluronic acid (Molecular Probes) was further added thereto, and the mixture was mixed. The mixture was added to 10.6 mL of an assay buffer [prepared by adding 10 mL of solution which was produced by adding 20 mL of 1 M HEPES (pH 7.4) (DOJIN) to 1 L of HBSS (Invitrogen), dissolving 710 mg of probenecid (Sigma) in 5 mL of 1N NaOH, and further adding 5 mL of the above-mentioned HBSS/HEPES solution thereto and mixing it.] containing 105 μL of fetal bovine serum, to give a fluorescent dye solution. The medium of the cell plate was removed, and immediately, the fluorescent dye solution was added at 100 μL/well, and incubated in CO2 incubator for 1 hour, allowing the fluorescent dye to be incorporated into the cells. The cells after incubation were washed with the above-mentioned assay buffer. The compound to be added to the cells was diluted with the assay buffer to each concentration, added to the plate for the test sample. After conducting the above-mentioned pretreatment, intracellular calcium concentration change after adding the compound was measured in FLIPR to investigate the agonist action. By dose-response curve with the change of fluorescence intensity value at 30 seconds after reaction initiation, EC50 value was calculated.

[3] = target: T3, PPARγ-RXRα heterodimer (Homo sapiens, UniProt P37231); experiment: PPARγ-RXRα heterodimer ligand activity (luciferase reporter, PPARγ:RXRα:4ERPP/CHO-K1 cells); format: cell-based; conditions: luciferase activity at 100 nM test compound relative to non-administration group as 1
T3 construct: expressed in transfected cells
T3 sequence (P37231 1-477 isoform P37231-2): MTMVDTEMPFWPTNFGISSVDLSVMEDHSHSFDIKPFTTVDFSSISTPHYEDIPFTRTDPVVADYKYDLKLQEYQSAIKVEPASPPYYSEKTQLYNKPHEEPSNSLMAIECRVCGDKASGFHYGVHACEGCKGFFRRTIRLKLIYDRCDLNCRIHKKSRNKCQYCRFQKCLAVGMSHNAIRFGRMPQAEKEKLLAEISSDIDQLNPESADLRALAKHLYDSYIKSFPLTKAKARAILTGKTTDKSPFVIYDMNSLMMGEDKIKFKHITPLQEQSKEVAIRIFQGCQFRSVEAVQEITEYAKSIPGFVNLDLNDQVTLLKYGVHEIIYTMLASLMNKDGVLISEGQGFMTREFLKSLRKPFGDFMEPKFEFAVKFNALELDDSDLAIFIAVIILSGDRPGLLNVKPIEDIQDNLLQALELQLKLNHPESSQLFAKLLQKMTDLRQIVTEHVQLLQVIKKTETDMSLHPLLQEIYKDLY
T3 sequence (P19793 1-462 partner): T1 sequence (P19793 1-462 partner)
Protocol: The PPARγ:RXRα:4ERPP/CHO-K1 cells obtained in Reference Example 8a were cultured in Ham's F12 medium [produced by Life Technologies, Inc., USA] containing 10% fetal bovine serum [produced by Life Technologies, Inc., USA] and inoculated to a 96-well white plate [produced by Corning Coster Corporation, USA] at 2×10^4 cells/well and cultured overnight at 37° C. in a carbon dioxide gas incubator.
After removal of the medium from the 96-well white plate which had been cultured overnight, Ham's F12 medium containing 80 μl of 0.1% fatty acid-free bovine serum albumin (BSA) and 20 μl of a test compound were added, and the plate was incubated at 37° C. in a carbon dioxide gas incubator for 18 to 24 hours. After removal of the medium, 40 μl of PicaGene 7.5 (produced by Waco Pure Chemicals Industries, Ltd.) diluted twofold with HBSS (HANKS' BALANCED SALT SOLUTION) (produced by BIO WHITTAKER) was added, and after stirring, the luciferase activity was determined using 1420 ARVO Multilabel Counter [produced by Wallac].
A fold induction was calculated from the luciferase activity for addition of each 100 nM of the test compound relative to the luciferase activity of the test compound non-administration group as 1. Results are shown in [Table 1]. […]

Structure (SMILES) | fold induction at 0.01 µM [1] | melting point [°C] | EC50 [2] [nM] | fold induction at 0.1 µM [3]
CCc1oc(-c2ccc(C(F)(F)F)cc2)cc1COc1ccc(CCC(=O)O)c(C)c1 [Example 5(9), 3-[4-({2-Ethyl-5-[4-(trifluoromethyl)phenyl]-3-furyl}methoxy)-2-methylphenyl]propionic acid] | 6.7 | 95 to 97 |  | 
Cc1cc(OCc2cc(-c3ccc(C(F)(F)F)cc3)oc2C)ccc1CCC(=O)O [Example 6(4), 3-[2-Methyl-4-({2-methyl-5-[4-(trifluoromethyl)phenyl]-3-furyl}methoxy)phenyl]propionic acid] | 7.4 | 140 to 141 | 180 | 
CCc1oc(-c2ccc(C(F)(F)F)cc2)cc1CCCOc1cccc(CC(=O)O)c1 [Example 6(26), [3-(3-{2-Ethyl-5-[4-(trifluoromethyl)phenyl]-3-furyl}propoxy)phenyl]acetic acid] | 5.6 | 113 to 114 |  | 
Cc1oc(C2CCCCC2)c(COc2cccc(CSCC(=O)O)c2)c1-c1ccc(F)cc1 [Example 5(2), [(3-{[2-Dichlorohexyl-4-(4-fluorophenyl)-5-methyl-3-furyl]methoxy}benzyl)thio]acetic acid] |  |  |  | 2.3
Cc1cc(OCCCc2cc(-c3ccc(C(F)(F)F)cc3)oc2C)ccc1CCC(=O)O [Example 6(24), 3-[2-Methyl-4-(3-{2-methyl-5-[4-(trifluoromethyl)phenyl]-3-furyl}propoxy)phenyl]propionic acid] | 6.8 | 125 to 126 |  | 
CCCCCCCN(C(=O)c1cc(-c2ccc(F)cc2)oc1C)c1cccc(CSCC(=O)O)c1 [Example 1(3), [(3{[5-(4-Fluorophenyl)-2-methyl-3-furoyl](heptyl)amino}benzyl)thio]acetic acid] |  | 94 to 96 |  | 2.8
COc1cc(OCc2cc(-c3ccc(C(F)(F)F)cc3)oc2C)ccc1CCC(=O)O [Example 6(6), 3-[2-Methoxy-4-({2-methyl-5-[4-(trifluoromethyl)phenyl]-3-furyl}methoxy)phenyl]propionic acid] | 6.6 | 159 to 160 | 160 | 
